{"source": "patent US7855215B2", "about": "“Cyclic diaryl ureas suitable as tyrosine kinase inhibitors” (Novartis AG, priority 2004, dated 2010)", "data": [{"units": {"melting point": "°C"}, "values": [{"molecule": "CNc1cc(Oc2ccc3c(c2)CCCN3C(=O)Nc2ccc(C(C)(C)C)cc2)ncn1", "note": "[Example 3, 6-(6-Methylamino-pyrimidin-4-yloxy)-3,4-dihydro-2H-quinoline-1-carboxylic acid (4-tert.butyl-phenyl)-amide]", "melting point": "175 to 176"}, {"molecule": "Nc1nc(Cl)cc(Oc2ccc3c(c2)CCCCN3C(=O)Nc2cccc(C(F)(F)F)c2)n1", "note": "[Example 6, 7-(2-Amino-6-chloro-pyrimidin-4-yloxy)-2,3,4,5-tetrahydro-benzo[b]azepine-1-carboxylic acid (3-trifluoromethyl-phenyl)-amide]", "melting point": 175}, {"molecule": "Nc1nccc(Oc2ccc3c(c2)CCCCN3C(=O)Nc2cccc(C(F)(F)F)c2)n1", "note": "[Example 7, 7-(2-Amino-pyrimidin-4-yloxy)-2,3,4,5-tetrahydro-benzo[b]azepine-1-carboxylic acid (3-trifluoromethyl-phenyl)-amide]", "melting point": 207}, {"molecule": "O=C(Nc1cccc(C(F)(F)F)c1)N1CCCCc2cc(Oc3cc(Cl)ncn3)ccc21", "note": "[Example 8, 7-(6-Chloro-pyrimidin-4-yloxy)-2,3,4,5-tetrahydro-benzo[b]azepine-1-carboxylic acid (3-trifluoromethyl-phenyl)-amide]", "melting point": 120}, {"molecule": "CN1CCN(CCCNc2cc(Oc3ccc4c(c3)CCN4C(=O)Nc3cccc(C(F)(F)F)c3)ncn2)CC1", "note": "[Example 18, 5-{6-[3-(4-Methylpiperazin-1-yl)-propylamino]-pyrimidin-4-yloxy}-2,3-dihydro-indole-1-carboxylic acid (3-trifluormethyl-phenyl)-amide]", "melting point": 163}, {"molecule": "CC(C)Nc1cc(Oc2ccc3c(c2)CCN3C(=O)Nc2cccc(C(F)(F)F)c2)ncn1", "note": "[Example 19, 5-(6-Isopropylamino-pyrimidin-4-yloxy)-2,3-dihydro-indole-1-carboxylic acid (3-trifluormethyl-phenyl)-amide]", "melting point": 189}, {"molecule": "CN1CCN(Cc2ccc(NC(=O)N3CCCc4cc(Oc5ccnc(N)n5)ccc43)cc2C(F)(F)F)CC1", "note": "[Example 33, 6-(2-Amino-pyrimidin-4-yloxy)-3,4-dihydro-2H-quinoline-1-carboxylic acid [4-(4-methyl-piperazin-1-ylmethyl)-3-trifluoromethyl-phenyl]-amide]", "melting point": "120 to 123"}, {"molecule": "CC(C)(CCC(=O)Nc1cc(Oc2ccc3c(c2)CCN3C(=O)Nc2ccc(N3CCOCC3)c(C(F)(F)F)c2)ncn1)[N+](=O)[O-]", "note": "[Example 38]", "melting point": "193 to 197"}, {"molecule": "CC(C)(N)CCC(=O)Nc1cc(Oc2ccc3c(c2)CCN3C(=O)Nc2ccc(N3CCOCC3)c(C(F)(F)F)c2)ncn1", "note": "[Example 39]", "melting point": "211 to 214"}, {"molecule": "O=C(Nc1cc(Oc2ccc3c(c2)CCN3C(=O)Nc2ccc(N3CCOCC3)c(C(F)(F)F)c2)ncn1)c1cccnc1", "note": "[Example 40]", "melting point": "253 to 258"}, {"molecule": "COC(=O)Nc1cc(Oc2ccc3c(c2)CCN3C(=O)Nc2ccc(N3CCOCC3)c(C(F)(F)F)c2)ncn1", "note": "[Example 41]", "melting point": "206 to 209"}, {"molecule": "CN1CCN(C(=O)Nc2cc(Oc3ccc4c(c3)CCN4C(=O)Nc3ccc(N4CCOCC4)c(C(F)(F)F)c3)ncn2)CC1", "note": "[Example 42]", "melting point": "175 to 177"}, {"molecule": "O=C(Nc1ccccc1)c1cc(Oc2ccc3c(c2)CCN3C(=O)Nc2cccc(C(F)(F)F)c2)ncn1", "note": "[Example 74, 5-(6-Phenylcarbamoyl-pyrimidin-4-yloxy)-2,3-dihydro-indole-1-carboxylic acid (3-trifluoromethyl-phenyl)-amide]", "melting point": "227 to 229"}]}]}
